Measurements from US10272056B2, “Treatment for mitochondrial diseases” (The George Washington University a Congressionally …, priority 2015, dated 2019).

Legend:
[1] = test system: PC12-ND6 cells; test: Mitochondrial mass (mito-GFP live cell microscopy, MTG/MTR flow cytometry); format: cell-based
Protocol: PC12-ND6 cells were transfected with the mito-GFP vector prior to treatment with NaBt (5 mM) for the indicated time points. Mitochondria were visualized by live cell microscopy; scale bar=5 μm.
(§1) FIG. 7A-7F show images from microscopy and graphs showing NaBt increases mitochondrial mass. (A) Live cell confocal microscopy of E17.5 hippocampal neurons; high magnification in inset; scale bar=5 (B) Quantitative analysis of the mitochondrial biomass in E17.5 neurons using an anti-CoxVα antibody; *p<0.001. (C) Live cell confocal microscopy of PC12-ND6 cells; high magnification in inset; scale bar=5 (D) Flow cytometric analysis of mitochondrial mass; *p<0.001. (E) Confocal microscopy of E17.5 brains from E12.5 pregnant dams treated with PBS (sham) or NaBt; scale bar=20 (F) Quantitative analysis of mitochondrial mass; *p<0.001.
(§2) Experimental approaches. Five distinct molecular tools were used to investigate mitochondrial biogenesis: 1) the mitochondrial-specific dyes, MitoTracker® Green (MTG) and MitoTracker® Red (MTR); 2) the mito-GFP or mito-dsRed vector to fluorescently label mitochondria; 3) antibodies against mtDNA, COXVα, or SOD2; 4) the fluorescent PicoGreen® dye labeling mtDNA; and 5) quantitative PCR to determine mtDNA copy number.
NaBt increases the mitochondrial biomass of neuronal cells in vitro and in vivo. To investigate the effect of NaBt on mitochondrial mass, PC12-ND6 cells were transfected with the mito-GFP vector before performing a time course analysis of NaBt (5 mM) treatment.
The effect of NaBt was investigated in embryonic neuronal progenitor cells, E17.5 hippocampal neurons, which were transfected with the mito-GFP vector and then exposed to various concentrations of NaBt. […] Therefore, all subsequent treatment of E17.5 hippocampal neurons with NaBt was performed in the presence of 2 mM. […] Flow cytometric analysis using MTG- or MTR-labeled cells corroborated the NaBt-mediated increase in mitochondrial mass (FIG. 7D).

[2] = test system: PC12-ND6 cells; test: Mitochondrial mass under chloramphenicol (mito-GFP live-cell confocal microscopy); format: cell-based; conditions: NaBt prior to chloramphenicol, up to highest concentration
Text: FIG. 14A-14E are images from microscopy showing that pre-treatment of PC12-ND6 cells with NaBt prevents chloramphenicol-mediated decrease of mitochondrial mass. (A) Graph of PC12-ND6 cell death upon exposure to different concentrations of chloramphenicol (Cm). Percent of cell death±SEM (n=250 cells). (B) Quantitative immunoblot analysis of mitochondrial-encoded MT-CO1 protein (green) and nuclear-encoded SDH-A protein (red) in Cm-treated PC12-ND6 cells. (C) Graph of MT-CO1/SDH-A ratio normalized to untreated PC12-ND6 cells. Mean±SEM (n=3; compared to untreated cells *p=0.0052, **p=0.0048, and ***p=0.0034). (D) Confocal micrographs of untreated and Cm-treated PC12-ND6 cells transfected with the vector mito-GFP. Scale bar represents 5 μm. (E) Confocal micrographs of NaBt pre-treated PC12-ND6 cells transfected with the vector mito-GFP and exposed to Cm. Scale bar represents 5 μm.
The efficacy of chloramphenicol treatment was determined by simultaneously examining the expression levels of the nuclear-encoded succinate dehydrogenase (SDH-A) subunit of Complex II and the mitochondrial-encoded subunit I of Complex IV (MT-COI) using a quantitative immunoblot approach. […] The effect of chloramphenicol on mitochondrial mass by live-cell confocal microscopy using PC12-ND6 cells transfected with the vector mito-GFP was confirmed.

[3] = test system: PC12-ND6 cells; test: Cell viability by live-cell confocal microscopy (Nuclear-ID stain); format: cell-based; conditions: 5 mM NaBt, three days
Text: FIG. 4A-4E are images from microscopy and graphs showing NaBt dose-dependent acetylation and cellular toxicity in PC12-ND6 cells and embryonic E17.5 hippocampal neurons. (A) Confocal micrographs of PC12-ND6 cells (referred to as ND6) grown in the absence or presence of NaBt for three days and labeled with an anti-acetylated Lys antibody (AcLys; green). Scale bar represents 10 μm. […] Results are expressed as relative fluorescence intensity±S.D. (n=250 cells per NaBt concentration; * p=0.0001). (C) Effect of NaBt on PC12-ND6 cell viability. […] Mean±SEM (n=250 cells for each experimental condition; * p=0.0001). (D) Confocal micrographs of NaBt dose-dependent acetylation in E17.5 hippocampal neurons (AcLys; green). Scale bar represents 10 μm.
Sodium butyrate increases protein acetylation in a dose-dependent manner without inducing cellular toxicity. A dose response analysis was performed to determine the optimal concentration of sodium butyrate (NaBt) for inducing maximal acetylation levels with minimal cellular toxicity. PC12-ND6 cells were treated with different concentrations of NaBt (2 mM, 5 mM, and 10 mM) for three days before assessing the degree of acetylated lysine residues by immunocytochemistry and cell viability by live-cell confocal microscopy using the Nuclear-ID™ stain.

[4] = test system: E17.5 neurons; test: In vivo mitochondrial mass of E17.5 brains from treated pregnant dams; design: species or system mice; conditions: E12.5 pregnant dams, NaBt 1.2 g/Kg intraperitoneally vs PBS
Text: as §1
Experimental paradigms. These are: 1) E17.5 differentiating hippocampal neurons expressing NeuroD6; 2) the PC12-NeuroD6 neuronal cell line recapitulating the early stages of differentiation; 3) E12.5 timed-pregnant dams treated intraperitoneally with NaBt (1.2 g/Kg) or PBS; and 4) cultured primary skin fibroblasts isolated from two MELAS patients and a healthy subject. Patient fibroblasts are the most suitable system to investigate the therapeutic potential of the butyrate derivatives (NaBt, TBN, and AN9) within the context of the patient's nuclear background and heteroplasmy, as MELAS animal models have not been generated due to polyploidy of the mt genome, heteroplasmic load, and influence of the nuclear background on MELAS phenotypic variability. […]

[5] = test system: healthy and MELAS fibroblasts; test: Dose-dependent studies for optimal safe concentrations; format: cell-based, human; conditions: three days of treatment
Text: as §2
Butyrates rescue the mitochondrial mass, morphology, networking, membrane potential, and cellular ATP levels in MELAS fibroblasts. Skin fibroblasts from two MELAS patients and from a healthy subject as a control were used. Dose-dependent analyses of butyrates to determine their best concentrations for eliciting an optimal mitochondrial response without cellular toxicity was performed. Healthy and MELAS fibroblasts were treated with PBS, NaBt (2.5 mM), TBN (1.5 mM), or AN9 (300 μM) for three days before labeling with the MTG dye for live cell confocal analysis.

[6] = flow cytometry, NaBt-treated vs control

CCCC(=O)[O-].[Na+] [NaBt, sodium butyrate]
time of maximal increase of the mitochondrial biomass ([1]; NaBt 5 mM, mito-GFP time course): after three days | increase in fluorescence intensity, MTR staining [1, 6]: 3.5 fold | increase in mitochondrial mass, MTG staining [1, 6]: two-fold | mitochondrial biomass with NaBt pre-treatment [2]: sustain their mitochondrial biomass | cell death [3]: negligible cell death | increase of in vivo mitochondrial mass of E17.5 neurons [4]: 1.6 fold | optimal safe concentration for eliciting maximal mitochondrial biogenesis without cellular toxicity [5]: 2.5 mM
